Test results published in patent US10022342B2, “Methods and compositions for treating multiple myeloma” (Ohio State Innovation Foundation, priority 2015, dated 2018).

Columns and labels:
CD44 = CD44 protein by immunoblot in MM cells; assay type: cell-based, human; conditions: 24-hr treatment, dose-dependent, vs DMSO control
Protocol: Reduction of CD44 mRNA and protein persisted for 48 hours after treatment (FIGS. 2C-2D and data not shown).
(§1) Cells were harvested by centrifugation, washed with PBS and lysed using buffer composed of 50 mM Tris (pH 7.5), 150 mM NaCl, 10% glycerol, 1.0% NP-40, 0.1% SDS, supplemented with protease and phosphatase inhibitors. Protein concentrations were estimated by Bradford assay and equivalent quantities of the lysates were resolved on 4-20% Tris-HCl SDS-PAGE TGX gels (Bio-Rad). Proteins were transferred to nitrocellulose membranes and stained for acetyl-histone H3 (Milipore), acetyl-histone H4 (Milipore), IGF2BP1 (Cell Signaling Technology), IGF2BP3 (IMP-3, Santa Cruz Biotechnology), CD44 (Santa Cruz Biotechnology), CD48 (Abcam), Drosha (Cell Signaling Technology), or glyceraldehyde 3-phosphate dehydrogenase (GAPDH, Cell Signaling Technology), followed by anti-mouse, or anti-rabbit IgG-HRP (GE Healthcare). Signals were developed using Pierce ECL Western Blotting Substrate (Thermo Fisher Scientific).

CD48 = CD48 protein and mRNA expression in MM.1S cells; assay type: cell-based, human; conditions: 48 hours
Protocol: The down-regulation of CD44 cell surface expression was also observed by flow cytometry in all MM cell lines tested expressing detectable CD44 levels (FIG. 1D, FIGS. 2E-2F and data not shown).
as §1

MM cells = assay: IC50 concentrations of HDAC inhibitors in MM cells; assay type: cell-based; conditions: Homo sapiens
CD44 promoter region = assay: CD44 promoter luciferase reporter assay; assay type: cell-based, human; conditions: 0.2 μM, 24 hour; MM.1S, U266 and 293T
Protocol: (§2) To address the molecular mechanism(s) responsible for downregulation of CD44 gene, the potential role of one or more cis regulatory regions was considered. […] The CD44 3′UTR element was subcloned downstream from the SV40 promoter-driven luciferase gene and transiently transfected the resulting reporter plasmid into MM.1S cells. Incubation of these cells with 0.2 μM AR-42 for 24 hours decreased luciferase activity detecting the activity of the CD44 3′UTR element by 35% as compared to untreated cells (FIG. 5A).
Human CD44 promoter-luciferase reporter gene (CD44P pGL3) was obtained from Addgene (Plasmid 19122). The 3′UTR of CD44 was PCR amplified using following primers:
Hela and 293T cells were transfected with 500 ng of 3′UTR-pGL3-control plasmid and 50 ng of Renilla luciferase expression construct (pRL-TK; Promega), using Lipofectamine 2000 (Invitrogen). After 24 hrs cells were lysed and tested by Dual Luciferase Assay (Promega), according to the manufacturer's instructions. MM.1S cells were transfected with 1.8 μg of pGL3-based luciferase vector and 200 ng of pRL-TK, harvested 24 hrs later and assayed as above.

CD44 3′UTR element = assay: CD44 3'UTR luciferase reporter assay in MM.1S cells; assay type: cell-based, human; conditions: 0.2 μM, 24 hours, vs untreated cells
Protocol: as §2
(Forward) 5′-gctagc[…]-3′ (SEQ ID NO: 1) and 5′- gctagc[…]-3′ (SEQ ID NO: 2) (engineered Nhel sites are in lower case), and the products were cloned into Xbal site downstream from the luciferase gene in pGL3-control vector (Promega). To generate IGF2BP3 luciferase reporter constructs, the 3′UTR was amplified by PCR using primers: (Forward) 5′-[…]-3′ (SEQ ID NO: 3) and (Reverse) 5′-[…]-3′ (SEQ ID NO: […]), and cloned into Xbal site of pGL3-control vector (Promega). Mutations in the miR-9-5p binding site of the IGF2BP3 3′UTR were introduced by the QuikChange Mutagenesis Kit (Stratagene) and the following primers:
Hela and 293T cells were transfected with 500 ng of 3′UTR-pGL3-control plasmid and 50 ng of Renilla luciferase expression construct (pRL-TK; Promega), using Lipofectamine 2000 (Invitrogen). […]

[1] = test system: U266, RPMI, and MM1S cells; assay: Apoptosis (annexin) and necrosis (propidium iodide) by HDAC inhibitors, FIG. 15; assay type: cell-based, human; conditions: 24 and 48 hours, 0.25, 0.5, and 1 μM
Protocol: Apoptosis was measured by annexin staining while cell necrosis was measured by propidium iodide staining.
CD44 surface expression was analyzed by staining cells with CD44-FITC antibody (BD Biosciences) for 30 min. in the dark, at room temperature. Apoptosis was measured by Annexin V-FITC and Propidium Iodide (PI) (Clontech) staining for 15 min. in the dark, at room temperature and data immediately acquired on a Beckman Coulter FC500 (Beckman Coulter) machine. Analysis was conducted using the FlowJo Software vX.0.7 (Tree Star Inc.). For the multiparametric analysis, the bone marrow samples were stained with CD38-PE (347687; BD Bioscience), CD138-APC (347193; BD Bioscience), CD45-ECD (A07784; Beckman Coulter), CD44-FITC (BD Bioscience) and AnnexinV-FITC (Clontech) for 30 minutes, washed with PBS and immediately analyzed with Gallios cytometer (Beckman Coulter).

In the case of CC(C)[C@H](C(=O)Nc1ccc(C(=O)NO)cc1)c1ccccc1 [AR-42, (S)-N-hydroxy-4-(3-methyl-2-phenylbutanamido)benzamide], the CD44 protein levels (CD44) is reported as “consistently downregulated”, the “CD48 protein and mRNA levels” value (CD48) is reported as “consistent up-regulation” and the IC50 (MM cells) is reported as 200 nM. For the same compound, the “activity of CD44 promoter region (luciferase)” value (CD44 promoter region) was “did not lower”, the “decrease of luciferase activity of the CD44 3′UTR element” value (CD44 3′UTR element) was 35% and the “apoptosis (annexin staining)” value [1] was “highest level of apoptosis”. The “cell necrosis (propidium iodide staining)” value [1] was “lowest levels of cell necrosis”.
